Assay results: ChEMBL document CHEMBL1142052, “Isosteric ramatroban analogs: selective and potent CRTH-2 antagonists” (Bioorg Med Chem Lett, 2005)

How the values were obtained:
[1] = biological target: T1, Thromboxane A2 receptor (Homo sapiens) (UniProt P21731); test: Percentage inhibition for binding of PGD-2 in hTP binding assay using HEK293 cell membranes; conditions: concentration not given here
T1 sequence (whole entry): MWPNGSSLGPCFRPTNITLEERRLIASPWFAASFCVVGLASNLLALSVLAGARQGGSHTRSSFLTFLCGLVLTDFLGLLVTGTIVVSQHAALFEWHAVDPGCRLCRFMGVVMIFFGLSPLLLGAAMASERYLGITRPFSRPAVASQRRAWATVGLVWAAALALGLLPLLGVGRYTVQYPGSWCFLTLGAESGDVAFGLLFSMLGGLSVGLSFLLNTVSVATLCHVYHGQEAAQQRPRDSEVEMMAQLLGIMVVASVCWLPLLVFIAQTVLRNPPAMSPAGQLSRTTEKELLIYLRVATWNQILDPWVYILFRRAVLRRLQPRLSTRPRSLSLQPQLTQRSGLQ

[2] = biological target: T2, Thromboxane A2 receptor (Homo sapiens, UniProt P21731); test: Inhibitory activity for binding of PGD-2 in hTP binding assay using HEK293 cell membranes
T2 sequence (P21731 whole entry): T1 sequence (whole entry)

[3] = biological target: T3, Prostaglandin D2 receptor 2 (Homo sapiens, UniProt Q9Y5Y4); test: Inhibitory concentration for PGD2-mediated receptor activation in a fluorescence assay that measures changes in intracellular calcium; format: functional, cell-based
T3 sequence (Q9Y5Y4 whole entry): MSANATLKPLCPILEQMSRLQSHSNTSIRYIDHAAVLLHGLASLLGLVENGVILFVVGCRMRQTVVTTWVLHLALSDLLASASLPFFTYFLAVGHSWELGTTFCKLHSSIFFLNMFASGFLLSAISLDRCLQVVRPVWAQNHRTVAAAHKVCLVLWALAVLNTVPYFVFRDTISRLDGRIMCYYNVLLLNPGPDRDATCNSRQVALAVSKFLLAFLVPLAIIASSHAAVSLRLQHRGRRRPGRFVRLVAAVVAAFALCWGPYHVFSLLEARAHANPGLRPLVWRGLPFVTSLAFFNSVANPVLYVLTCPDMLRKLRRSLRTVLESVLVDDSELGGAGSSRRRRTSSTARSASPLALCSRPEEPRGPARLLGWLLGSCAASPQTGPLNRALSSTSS

[4] = biological target: T3, Prostaglandin D2 receptor 2; test: Inhibitory activity for binding of PGD-2 to CRTH-2 in hCRTH-2 binding assay using HEK293 cell membranes
[5] = biological target: T3, Prostaglandin D2 receptor 2; test: Inhibitory activity against CRTH-2 in hCRTH-2 binding assay using HEK293 cell membranes
[6] = biological target: T2, Thromboxane A2 receptor; test: Inhibitory activity for binding of PGD-2 to hTP in hTP binding assay using HEK293 cell membranes
[7] = biological target: T3, Prostaglandin D2 receptor 2; test: = for PGD2-mediated receptor activation in a fluorescence assay that measures changes in intracellular calcium

Row | Ki [4] [µM] | SMILES | further results
1 | – | CC1CCc2c(c3cc(NS(=O)(=O)c4ccc(F)cc4)ccc3n2CC(=O)O)C1 (configuration not stated) | inhibition [1]: 30%; Ki [2]: > 20 µM; IC50 [3]: 0.0097 µM
2 | 4.2 | O=C(O)CCn1c2c(c3cc(NS(=O)(=O)c4ccc(F)c(F)c4)ccc31)CCCC2 | –
3 | 0.97 | O=C(O)CCn1c2c(c3cc(NS(=O)(=O)c4ccccc4F)ccc31)CCCC2 | –
4 | 0.25 | O=C(O)CCn1c2c(c3cc(NS(=O)(=O)c4ccc(F)cc4)ccc31)CCCC2 | Ki [5]: 0.25 µM; Ki [2]: 1.5 µM
5 | > 50 | O=C(O)CCn1c2c(c3cc(NC(=O)Nc4ccccc4)ccc31)CCCC2 | –
6 | > 50 | Nc1ccc2c(c1)c1c(n2CCC(=O)O)CCCC1 | –
7 | 3.3 | O=C(O)CCn1c2c(c3cc(NS(=O)(=O)c4ccc(-c5ccccc5)cc4)ccc31)CCCC2 | –
8 | 17 | O=C(O)CCn1c2c(c3cc(NCc4ccccc4)ccc31)CCCC2 | –
9 | 3.6 | O=C(O)CCn1c2c(c3cc(NS(=O)(=O)c4ccc(F)cc4F)ccc31)CCCC2 | –
10 | 6.4 | O=C(O)c1ccc(-n2c3c(c4cc(NS(=O)(=O)c5ccc(F)cc5)ccc42)CCCC3)cc1 | –
11 | – | O=C(O)Cn1c2c(c3cc(NS(=O)(=O)c4ccc(F)cc4)ccc31)CC(c1ccccc1)CC2 (configuration not stated) | inhibition [1]: 66%; Ki [2]: > 20 µM; IC50 [3]: 0.022 µM
12 | 1.7 | O=C(O)CCn1c2c(c3cc(NS(=O)(=O)c4ccc(F)c(Cl)c4)ccc31)CCCC2 | –
13 | 3.2 | Cc1ccc(S(=O)(=O)Nc2ccc3c(c2)c2c(n3CCC(=O)O)CCCC2)cc1 | –
14 | > 50 | Cc1ccccc1S(=O)(=O)Nc1ccc2c(c1)c1c(n2CCC(=O)O)CCCC1 | –
15 | > 50 | CC(Cn1c2c(c3cc(NS(=O)(=O)c4ccc(F)cc4)ccc31)CCCC2)C(=O)O (configuration not stated) | –
16 | 2.1 | COc1ccc(S(=O)(=O)Nc2ccc3c(c2)c2c(n3CCC(=O)O)CCCC2)cc1 | –
17 | 7.4 | O=C(O)CCn1c2c(c3cc(NS(=O)(=O)c4ccc5ccccc5c4)ccc31)CCCC2 | –
18 | > 50 | CC(CC(=O)O)n1c2c(c3cc(NS(=O)(=O)c4ccc(F)cc4)ccc31)CCCC2 (configuration not stated) | –
19 | 0.03 | O=C(O)Cn1c2c(c3cc(NS(=O)(=O)c4ccc(F)cc4)ccc31)CCCC2 | Ki [6]: > 20 µM
20 | 4.4 | CC(C(=O)O)n1c2c(c3cc(NS(=O)(=O)c4ccc(F)cc4)ccc31)CCCC2 (configuration not stated) | –
21 | 0.29 | O=C(O)CCn1c2c(c3ccccc31)C[C@H](NS(=O)(=O)c1ccc(F)cc1)CC2 [RAMATROBAN] | inhibition [1]: 98%; IC50 [7]: 0.34 µM; Ki [2]: 0.018 µM

Row | Ki [4] [µM] | SMILES | further results
22 | 27 | O=C(O)c1cccc(-n2c3c(c4cc(NS(=O)(=O)c5ccc(F)cc5)ccc42)CCCC3)c1 | –
23 | 33 | O=C(O)c1ccccc1-n1c2c(c3cc(NS(=O)(=O)c4ccc(F)cc4)ccc31)CCCC2 | –
24 | 1.3 | O=C(O)CCn1c2c(c3cc(NS(=O)(=O)c4cccc(F)c4)ccc31)CCCC2 | –
25 | 19 | O=C(O)/C=C\n1c2c(c3cc(NS(=O)(=O)c4ccc(F)cc4)ccc31)CCCC2 | –
26 | 4.2 | Cc1cccc(S(=O)(=O)Nc2ccc3c(c2)c2c(n3CCC(=O)O)CCCC2)c1 | –
27 | 7.6 | O=C(O)CCn1c2c(c3cc(NS(=O)(=O)c4cccs4)ccc31)CCCC2 | –
28 | > 50 | O=P(O)(O)CCn1c2c(c3cc(NS(=O)(=O)c4ccc(F)cc4)ccc31)CCCC2 | –
29 | 4.6 | O=C(O)CCCCn1c2c(c3cc(NS(=O)(=O)c4ccc(F)cc4)ccc31)CCCC2 | –
30 | – | CC(C)(C)C1CCc2c(c3cc(NS(=O)(=O)c4ccc(F)cc4)ccc3n2CC(=O)O)C1 (configuration not stated) | IC50 [3]: 0.12 µM
31 | > 50 | O=C(O)CCn1c2c(c3cc(NC(=O)c4ccccc4)ccc31)CCCC2 | –
32 | – | O=C(O)Cn1c2c(c3cc(NS(=O)(=O)c4ccc(F)cc4)ccc31)CCC2 | IC50 [3]: 0.13 µM
33 | 2.4 | O=S(=O)(O)CCn1c2c(c3cc(NS(=O)(=O)c4ccc(F)cc4)ccc31)CCCC2 | –
34 | 7.4 | O=C(O)CCn1c2c(c3cc(NS(=O)(=O)c4ccc(O)cc4)ccc31)CCCC2 | –
35 | > 50 | CCCS(=O)(=O)Nc1ccc2c(c1)c1c(n2CCC(=O)O)CCCC1 | –
36 | 3 | O=C(O)CCn1c2c(c3cc(NS(=O)(=O)c4ccc(Cl)cc4)ccc31)CCCC2 | –
37 | 7.5 | O=C(O)CCn1c2c(c3cc(NS(=O)(=O)c4ccc(Oc5ccccc5)cc4)ccc31)CCCC2 | –
38 | – | O=C(O)CN1c2ccc(NS(=O)(=O)c3ccc(F)cc3)cc2C2CCCCCC21 (configuration not stated) | Ki [2]: > 20 µM; IC50 [3]: 0.022 µM
39 | 18 | CCC(C(=O)O)n1c2c(c3cc(NS(=O)(=O)c4ccc(F)cc4)ccc31)CCCC2 (configuration not stated) | –
40 | 1.2 | O=C(O)CCn1c2c(c3cc(NS(=O)(=O)c4ccccc4)ccc31)CCCC2 | –
41 | 8.3 | O=C(O)CCCn1c2c(c3cc(NS(=O)(=O)c4ccc(F)cc4)ccc31)CCCC2 | –
